The values below come from US20080242649A1, “New Combination 665” (priority 2007, published 2008).

Where two headings read alike, the source gives them in different places.

In assay [1] the test system is LPS-induced intra-alveolar neutrophilia. In words: Intra-alveolar neutrophil migration after intratracheal LPS challenge in the CRL:CD rat. The class given is in vivo. The protocol:
Evaluation of Compound Activity on Intra-Alveolar Neutrophil Migration after Intratracheal Challenge with Lipopolysacharride (LPS) in the CRL:CD Rat
LPS challenge in CRL:CD rats causes an influx of neutrophils into the lungs. Under recoverable gaseous anaesthesia (5% isoflorane in oxygen), rats were dosed via the intratracheal route with vehicle (0.05M phosphate, 0.1% Tween 80, 0.6% saline, pH 6), or compound 30 min before challenge with an intratracheal dose of 10 μg/kg LPS.
The rats (250-400 g) were euthanized 4 hr after LPS challenge with 1 mL pentobarbitone sodium. A tracheotomy was performed and a cannula inserted. The airway was then lavaged using 3 mL Isoton at room temperature. The Isoton (BeckmanCoulter, High Wycombe, UK) was left in the airway for 10 seconds before being removed. The bronchio-alveolar lavage (BAL) fluid containing inflammatory cells was placed into a 15 mL centrifuge tube and kept on ice. This process was repeated three times. An aliquot of BAL fluid was removed and the inflammatory cells were counted on Sysmex (Sysmex UK, Milton Keynes). Neutrophils were expressed in millions/animal (mean ±s.e.mean).

Assay [2] relates to methacholine-induced bronchoconstriction. In words: Lung function in anaesthetized guinea-pigs, methacholine challenge. The class given is in vivo, Dunkin-Hartley guinea pig. Here is the method:
(§1) Evaluation of Lung Function in Anaesthetized Guinea-Pigs
(§2) Male Dunkin-Hartley guinea pigs (300-600 g) were weighed and dosed with vehicle (0.05M phosphate, 0.1% Tween 80, 0.6% saline, pH 6) or compound via the intratracheal route under recoverable gaseous anaesthesia (5% halothane in oxygen). Animals were dosed with compound or vehicle two hours prior to the administration of histamine or methacholine.
(§3) Guinea pigs were anaesthetized with pentobarbitone (1 mL/kg of 60 mg/mL solution i.p.) approximately 30 minutes prior to the first bronchoconstrictor administration. The trachea was cannulated and the animal ventilated using a constant volume respiratory pump (Harvard Rodent Ventilator model 683) at a rate of 60 breath/min and a tidal volume of 5 ml/kg. A jugular vein was cannulated for the administration of histamine, methacholine or maintenance anaesthetic (0.1 mL of pentobarbitone solution, 60 mg/mL, as required).
(§4) The animals were transferred to a Flexivent System (SCIREQ, Montreal, Canada) in order to measure airway resistance. The animals were ventilated (quasi-sinusoidal ventilation pattern) at 60 breaths/min at a tidal volume of 5 mL/kg. A positive end expiratory pressure of 2-3 cmH2O was applied. Respiratory resistance was measured using the Flexivent “snapshot” facility (1 second duration, 1 Hz frequency). Once stable baseline resistance value had been obtained the animals were given histamine or methacholine in ascending doses (0.5, 1, 2, 3 and 5 μg/kg, i.v.) at approximately 4-minute intervals via the jugular catheter. After each administration of bronchoconstrictor the peak resistance value was recorded. Guinea pigs were euthanized with approximately 1.0 mL pentobarbitone sodium (Euthatal) intravenously after the completion of the lung function measurements. Percentage bronchoprotection produced by a compound was calculated at each dose of brochoconstrictor as follows:
(§5) Where % change Rveh is the mean of the maximum percentage change in airway resistance in the vehicle treated group. The results reported were measured after 5 μg/kg histamine or methacholine and were expressed as percentage bronchoprotection (mean ±s.e.mean).

Assay [3] relates to histamine-induced bronchoconstriction. In words: Lung function in anaesthetized guinea-pigs, histamine challenge. The class given is in vivo, Dunkin-Hartley guinea pig. The protocol:
as §1, §2, §3, §4, §5

A further assay relates to guinea pig trachea. Kind of assay: Bronchodilator onset in guinea pig isolated tracheal ring contracted with methacholine. To be noted: roflumilast 1 μM alone. Here is the method: Evaluation of Bronchodilator Activity in the Guinea Pig Isolated Tracheal Ring Preparation
Guinea pigs (300-500 g) were killed by cervical dislocation and the trachea was isolated. The trachea was cut into segments 2-3 cartilage rings in width and suspended in 10 ml organ baths in modified Krebs' solution (mM; NaCl, 90; NaHCO3, 45; KCl, 5; MgSO4.7H2O, 0.5; Na2HPO4.2H2O, 1; CaCl2, 2.25; glucose, 10; pH 7.4) gassed with 5% CO2, 95% […] at 37° C.). The tracheal rings were attached to an isometric force transducer for the measurement of isometric tension. The tissues were washed and a force of 1 g was applied to each tissue. The rings were contracted with methacholine (1 μM). Once the contraction had reached a plateau, vehicle (0.01% DMSO in distilled H2O), compound A (3 nM), roflumilast (1 μM) or a combination of compound A (3 nM) and roflumilast (1 μM) was added and the tissue left until the response had reached a plateau. Data were collected using the Chart 4 software (ADInstruments, Charlgrove, UK). The time to 90% of the maximum effect of the bronchodilator (onset time) was measured and expressed in min (mean ±s.e.mean).

The subject of assay [4] is LPS-induced TNFα production. In words: Inhibition of LPS-induced TNFα production in human PBMCs. The class given is cell-based. Particulars: for inhibition at 0.03 µM: Homo sapiens, PBMC. Here is the method:
Inhibition of Lipopolysacchamide (LPS)-Induced TNFα Production in Human Peripheral Blood Mononuclear Cells
The cells were then incubated with LPS (1 μg/mL) for 4 hours at 37° C. to induce TNFα production. At the end of the incubation period, the plates were centrifuged (300 g, 10 minutes) and 100 μL of the culture supernatant was analysed to quantify the TNFα released using a Fluorescence-linked immunosorbance assay (FLISA) assay kit (R&D Systems). Fluorescence levels were read on an FMAT plate reader. Inhibition curves were fitted using a 4-parameter logistic equation in a non-linear curve fitting routine and activity was expressed as pIC50 (mean ±s.e.mean).

Regarding `CNC(=O)c1cc(Cl)c(OC(C)(C)C(=O)O)cc1OC[C@@H](O)CN1CCC2(CC1)Cc1cc(Cl)ccc1O2` [Compound W, 2-{2-Chloro-5-{[(2S)-3-(5-chloro-1′H,3H-spiro[1-benzofuran-2,4′-piperidin]-1′-yl)-2-hydroxypropyl]oxy}-4-[(methylamino)carbonyl]phenoxy}-2-methylpropanoic acid], the inhibition of neutrophilia in assay [1] (Compound W 3 ng/kg intratracheal) is 56%. In assay [1] (Compound W 3 ng/kg, vehicle/LPS 11±1.8), the “neutrophils in BAL” value was found to be 6.3±1.1 million/animal.
`CCCC1O[C@@H]2C[C@H]3[C@@H]4CCC5=CC(=O)C=C[C@]5(C)[C@H]4[C@@H](O)C[C@]3(C)[C@]2(C(=O)CO)O1` (some centres unmarked) [Budesonide, reference compound] had an inhibition of neutrophilia in assay [1] (budesonide 0.1 μg/kg intratracheal 30 min prior to LPS) of 51%. For the same molecule, the “neutrophils in BAL” value in assay [1] (budesonide 0.1 μg/kg intratracheal, vehicle/LPS 14±1.6) was 7.1±0.77 million/animal.
In assay [2] (tiotropium bromide 0.03 pg/kg intratracheal, methacholine 5 μg/kg, vehicle 1898±211%), `C[N+]1(C)[C@@H]2C[C@@H](OC(=O)C(O)(c3cccs3)c3cccs3)C[C@H]1[C@@H]1O[C@@H]12` [tiotropium bromide, reference compound] showed an increase in resistance of 1656±269%. Also, in assay [2] (tiotropium bromide intratracheal 2 h before, methacholine 5 μg/kg i.v.), the “inhibition of methacholine-induced bronchoconstriction” value is listed as 13%.
`CC(=O)Nc1ccc(O)cc1OC[C@@](C)(O)CNC1CCN(Cc2ccc(Cl)cc2)CC1` [Compound X, N-{2-[((2S)-3-{[1-(4-chlorobenzyl)piperidin-4-yl]amino}-2-hydroxy-2-methylpropyl)oxy]-4-hydroxyphenyl}acetamide]: the inhibition of neutrophilia in assay [1] (Compound X 30 μg/kg intratracheal) came to 30%. In addition, the “neutrophils in BAL” value in assay [1] (Compound X 30 μg/kg, vehicle/LPS 12±1.7) is reported as 8.5±0.75 million/animal.
For the molecule `O=C(Nc1c(Cl)cncc1Cl)c1ccc(OC(F)F)c(OCC2CC2)c1` [Roflumilast, 3-(cyclopropylmethoxy)-N-(3,5-dichloro-4-pyridinyl)-4-(difluoromethoxy)benzamide, reference compound], the “inhibition of histamine-induced bronchoconstriction” value in assay [3] (roflumilast 1 mg/kg intratracheal 2 h before, histamine 5 μg/kg i.v.) was 35%. The same molecule yielded an increase in bronchoconstriction in assay [3] (roflumilast 1 mg/kg intratracheal, histamine 5 μg/kg, vehicle 1100±161%) of 695±177%. Also, the “onset time (time to 90% of the maximum effect)” value in the assay with guinea pig trachea was 26 ± 1.4 min. Also, the inhibition at 0.03 µM came out at 70 ± 4.1% in assay [4] (roflumilast 30 nM alone, PBMCs, LPS 1 μg/mL, read-out: inhibition of LPS-induced TNFα production) and 92 ± 0.4% in assay [4] (roflumilast 30 nM in the presence of 30 nM compound A, read-out: maximum inhibition of TNFα production). For the same molecule, in assay [4] (roflumilast 30 nM in the presence of 3 nM compound A), the “maximum inhibition of TNFα production” value was 82±2.3%.

What is called inhibition is the percentage by which the read-out fell short of the control.
